Assay results published in US9783513B2, “STAT3 inhibitors and their anticancer use” (Ohio State Innovation Foundation, priority 2012, dated 2017).
Entries after “also recorded” stand apart in the source; their conditions may differ.

Legend:
[1] = test system: HUVEC spheroids; assay: 3D in vitro angiogenesis (spheroid sprouting) assay; type: cell-based, human; settings: 300 nM
Method: The Endothelial Tube Formation Assay (CBA200, Cell Biolabs Inc., San Diego, Calif., USA) was used in addition to the HUVEC proliferation assay. The ECM gel was thawed at 4° C. and mixed to homogeneity using cooled pipette tips. Cell culture plates (96-well) were bottom-coated with a thin layer of ECM gel (50 μl/well), which was left to polymerize at 37° C. for 60 min. HUVEC (2-3×10^4 cells) were stimulated with VEGF in 150 μl medium and added to each well on the solidified ECM gel. Culture medium was added to each well in the presence or absence of LY5. The plates were incubated at 37° C. for 12-18 hours and the endothelial tubes were quantified using a fluorescent microscope after staining with Calcein AM. Three microscope fields were selected at random and photographed. Tube forming ability was quantified by counting the total number of cell clusters and branches under a 4× objective and […] per well. The results are expressed as mean fold change of branching compared with the control groups. Each experiment was performed at least three times. The 3D in vitro angiogenesis assay was performed essentially as described by manufactures instructions (promo cell). […] The spheroids were photographed after 24 hours and sprout formation assessed as described.

[2] = test system: 96 human protein or lipid kinases; assay: Kinase screening (KINOMESCAN), panel of 96 kinases; type: binding
Method: The potential off-target activity of a representative compound was assessed in a screen against 96 protein and lipid kinases (see FIGS. 56 and 60). The test compound, LY-5, was assessed at 1000 and 5000 nM concentration using in vitro kinase assays. The assays were carried out using standard techniques known to one skilled in the art (KINOMESCAN™, San Diego, Calif.). The data in FIG. 60 show the % inhibition for the tested concentrations of LY-5 in the panel of kinases assessed. The interaction map provides a visualization of the relationship of these inhibition data from FIG. 60 to various kinase families.

[3] = test system: OSM induced STAT3 phosphorylation; assay: Western blot, OSM induced STAT3 phosphorylation; type: cell-based, human
[4] = test system: STAT5; assay: Western blot, STAT5 after OSM stimulation; type: cell-based, human; settings: MCF-7; 1 and 2.5 μM; OSM 50 ng/mL
Method: RH30 cells were treated with DMSO, LY-5 (0.25-1 μM) and LY-3 (0.5-2.5 μM) prepared as a 20 mM stock solution in sterile DMSO at 60% to 80% confluence in the presence of 10% FBS for 24 hours. The sarcoma cell line EW8 was treated with DMSO and LY-5 (0.5-2.5 μM) prepared as a 20 mM stock solution in sterile DMSO at 60% to 80% confluence in the presence of 10% FBS for 24 hours. MCF-7 cells and DAOY cells were treated with DMSO, 25-50 ng/ml of IL-6, LY-5 (0.25-1 μM) or LY-3 (0.5-2.5 μM) prepared as a 20 mM stock solution in sterile DMSO, protein expressions of P-STAT3 (Tyr705) and STAT3 were tested. DAOY cells were treated with DMSO, 50 ng/ml of IFN-γ, LY-5 (1-5 μM) prepared as a 20 mM stock solution in sterile DMSO, protein expressions of P-STAT3 (Tyr705) and STAT3 were tested. MCF-7 cells were treated with DMSO, 50 ng/ml of OSM, LY-5 (1-2.5 μM) or LLL12 (1-2.5 μM) prepared as a 20 mM stock solution in sterile DMSO, protein expressions of P-STAT3 (Tyr705), P-STAT1, P-STAT5, P-ERK (T202/Y204), P-AKT, STAT3 and STAT1 were tested.
MCF-7 breast cancer cells were seeded in 10 cm plates and allowed to adhere overnight. The following day, the cells were serum-starved. The cells were then left untreated or were treated with LY-5 and LLL12 (1 μM and 2.5 μM) prepared as a 20 mM stock solution in sterile DMSO or DMSO. […] The cells were harvested after 30 minutes and analyzed by Western blot.

[5] = Toxicity assessment in tumor-free mice; type: in vivo, mouse; settings: C57BL/6 mice, IP 5 or 10 mg/kg daily, 7 days
Method: In order to provide preliminary data regarding potential toxicities from dosing of LY5, C57BL/6 tumor-free mice were treated with daily intraperitoneal (IP) injections of LY5 at 5 or 10 mg/kg for 7 days. […] Additionally, LY5 at a dose of 5 mg/kg via IP for 5 days inhibited growth of OS-1 tumor xenografts (90% tumor volume compared to baseline), while tumor in vehicle treated mice continued to grow (143% tumor volume compared to baseline).

SMILES: NS(=O)(=O)c1cccc2c1C(=O)C=C(Nc1cccnc1)C2=O [LY-5, 5,8-dioxo-6-(pyridin-3-ylamino)-5,8-dihydronaphthalene-1-sulfonamide]
- VEGF induced sprouting from preformed HUVEC spheroids [1]: reduce HUVEC vascular sprout length
- VEGF induced sprouting from preformed HUVEC spheroids ([1]; listed as LY5): impaired angiogenic sprouting
- inhibitory binding to the active sites of 96 kinases ([2]; 1 μM drug concentration, FIG. 56): no apparent inhibitory binding
- inhibition of the panel of kinases ([2]; 1000 and 5000 nM): did not significantly inhibit; also recorded: no apparent activity
- OSM induced STAT3 phosphorylation ([3]; MCF-7, 1-2.5 μM, OSM 50 ng/mL): inhibit
- OSM induced STAT3 phosphorylation at Y705 ([3]; SJSA, 0-2.5 μM, 3 h): inhibits
- inhibition of STAT5 [4]: exhibit inhibition
- erythrocyte, leukocyte and platelet parameters [5]: no differences
- organ weights as a percentage of body weight [5]: did not vary significantly
- histologic evaluation of organs ([5]; n=2): no abnormalities
